Reference: BindingDB's records for doi:10.1021/np500581m (Institute of Microbial Chemistry (Bikaken), 2015)

Assay: Induction of p53-dependent growth suppression of human LNZTA3 cells after 72 hrs by MTT assay

Row | IC50 [µM] | SMILES
1 | 6.2 | CCCCC[C@H](O[C@@H]1O[C@@H]([C@H](O)CO)[C@H](O)[C@H]1O)c1c(O)cc2c(c1O)C(=O)c1c(O)cc(O)cc1C2=O
2 | 6.2 | CCCCC[C@H](O[C@@H]1O[C@@H]([C@H](O)CO)[C@H](O)[C@H]1OC(C)=O)c1c(O)cc2c(c1O)C(=O)c1c(O)cc(O)cc1C2=O
